What was measured:
[1] = target: T1, hERG channel (Homo sapiens, UniProt Q12809); assay: hERG electrophysiology, automated whole-cell patch clamp (Patchliner) in CHO-K1 cells stably expressing hERG; assay type: cell-based; conditions: 30 nM-100 μM
T1 construct: expressed in transfected cells
Experimental: This assay is used to evaluate the disclosed compounds' inhibition activities against the hERG channel.
CHO-K1 cells stably expressing hERG were grown in Ham's F-12 Medium with glutamine containing 10% heat-inactivated FBS, 1% penicillin/streptomycin, hygromycin (100 μg/ml) and G418 (100 μg/ml). Cells were grown in culture flasks at 37° C. in a 5% CO2-humidified incubator.
The cells were bathed in an extracellular solution containing 140 mM NaCl, 4 mM KCl, 2 mM CaCl2), 1 mM MgCl2, 5 mM Glucose, 10 mM HEPES; pH adjusted to 7.4 with NaOH; 295-305 mOsm. The internal solution contained 50 mM KCl, 10 mM NaCl, 60 mM KF, 20 mM EGTA, 10 mM HEPES; pH adjusted to 7.2 with KOH; 285 mOsm. All compounds were dissolved in DMSO at 30 mM. Compound stock solutions were freshly diluted with external solution to concentrations of 30 nM, 100 nM, 300 nM, 1 μM, 3 μM, 10 μM, 30 μM and 100 μM. The highest content of DMSO (0.3%) was present in 100 μM.
The voltage protocol (see Table B) was designed to simulate voltage changes during a cardiac action potential with a 300 ms depolarization to +20 mV (analogous to the plateau phase of the cardiac action potential), a repolarization for 300 ms to −50 mV (inducing a tail current) and a final step to the holding potential of −80 mV. The pulse frequency was 0.3 Hz. Control (compound-free) and compound pulse trains for each compound concentration applied contained 70 pulses.
Whole-cell current recordings and compound application were enabled by means of an automated patch clamp platform Patchliner (Nanion). EPC 10 patch clamp amplifier (HEKA) along with Patchmaster software (HEKA Elektronik Dr. Schulze GmbH) was used for data acquisition. Data were sampled at 10 kHz without filtering. Increasing compound concentrations were applied consecutively to the same cell without washouts in between.
AUC and PEAK values were obtained with Patchmaster (HEKA Elektronik Dr. Schulze GmbH). To determine IC50 the last single pulse in the pulse train corresponding to a given compound concentration was used. Obtained AUC and PEAK values in the presence of compound were normalized to control values in the absence of compound. Using Origin (OridinLab), IC50 was derived from data fit to Hill equation: Icompound/Icontrol=(100−A)/(1+([compound]/IC50)nH)+A, where IC50 is the concentration at which current inhibition is half-maximal, [compound] is the applied compound concentration, A is the fraction of current that is not blocked and nH is the Hill coefficient.

[2] = target: T2, Kv1.3 potassium channel (Homo sapiens, UniProt P22001); assay: Kv1.3 potassium channel blocker activity, automated whole-cell patch clamp (Patchliner) in CHO-K1 cells stably expressing Kv1.3; assay type: cell-based; conditions: 30 nM-100 μM
T2 construct: expressed in transfected cells
How it was run: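 Whole-cell automated patch clamp in CHO-K1 cells, pH 7.4 external/7.2 internal; 100 ms steps from −90 to +40 mV at 0.1 Hz, 20-pulse trains. Cumulative 30 nM–100 μM on one cell, ≤10 s per concentration; last-pulse current normalized to control, IC50 from Hill fit.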

T1 sequence (Q12809 whole entry): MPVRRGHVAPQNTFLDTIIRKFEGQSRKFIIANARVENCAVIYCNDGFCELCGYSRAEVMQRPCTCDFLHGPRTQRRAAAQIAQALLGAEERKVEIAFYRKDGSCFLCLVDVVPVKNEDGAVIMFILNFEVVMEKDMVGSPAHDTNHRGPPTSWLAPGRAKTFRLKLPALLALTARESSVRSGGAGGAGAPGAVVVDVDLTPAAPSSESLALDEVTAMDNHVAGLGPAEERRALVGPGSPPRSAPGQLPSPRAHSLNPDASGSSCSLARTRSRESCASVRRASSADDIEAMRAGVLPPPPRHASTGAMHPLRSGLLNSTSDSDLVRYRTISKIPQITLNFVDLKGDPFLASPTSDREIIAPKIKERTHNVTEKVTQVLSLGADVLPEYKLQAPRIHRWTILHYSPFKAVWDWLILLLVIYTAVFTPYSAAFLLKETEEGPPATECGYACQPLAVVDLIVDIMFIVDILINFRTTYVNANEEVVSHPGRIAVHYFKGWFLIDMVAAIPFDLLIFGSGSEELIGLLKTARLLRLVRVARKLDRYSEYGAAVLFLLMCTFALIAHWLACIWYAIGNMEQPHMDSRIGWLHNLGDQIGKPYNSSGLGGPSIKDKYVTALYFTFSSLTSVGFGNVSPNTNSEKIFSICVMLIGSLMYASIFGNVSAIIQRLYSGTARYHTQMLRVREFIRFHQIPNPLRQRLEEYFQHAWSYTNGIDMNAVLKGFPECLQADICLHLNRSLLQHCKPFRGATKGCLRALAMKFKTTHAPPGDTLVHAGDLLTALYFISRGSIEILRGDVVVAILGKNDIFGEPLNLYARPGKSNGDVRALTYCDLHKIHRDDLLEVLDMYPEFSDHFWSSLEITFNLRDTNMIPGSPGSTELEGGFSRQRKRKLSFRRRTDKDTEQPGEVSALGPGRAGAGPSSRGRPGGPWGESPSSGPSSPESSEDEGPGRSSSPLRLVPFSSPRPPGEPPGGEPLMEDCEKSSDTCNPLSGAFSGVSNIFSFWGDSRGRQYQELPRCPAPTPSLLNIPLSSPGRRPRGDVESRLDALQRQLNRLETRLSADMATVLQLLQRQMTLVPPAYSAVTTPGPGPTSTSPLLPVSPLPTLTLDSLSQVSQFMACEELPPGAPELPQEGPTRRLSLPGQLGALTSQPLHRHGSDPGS
T2 sequence (P22001 whole entry): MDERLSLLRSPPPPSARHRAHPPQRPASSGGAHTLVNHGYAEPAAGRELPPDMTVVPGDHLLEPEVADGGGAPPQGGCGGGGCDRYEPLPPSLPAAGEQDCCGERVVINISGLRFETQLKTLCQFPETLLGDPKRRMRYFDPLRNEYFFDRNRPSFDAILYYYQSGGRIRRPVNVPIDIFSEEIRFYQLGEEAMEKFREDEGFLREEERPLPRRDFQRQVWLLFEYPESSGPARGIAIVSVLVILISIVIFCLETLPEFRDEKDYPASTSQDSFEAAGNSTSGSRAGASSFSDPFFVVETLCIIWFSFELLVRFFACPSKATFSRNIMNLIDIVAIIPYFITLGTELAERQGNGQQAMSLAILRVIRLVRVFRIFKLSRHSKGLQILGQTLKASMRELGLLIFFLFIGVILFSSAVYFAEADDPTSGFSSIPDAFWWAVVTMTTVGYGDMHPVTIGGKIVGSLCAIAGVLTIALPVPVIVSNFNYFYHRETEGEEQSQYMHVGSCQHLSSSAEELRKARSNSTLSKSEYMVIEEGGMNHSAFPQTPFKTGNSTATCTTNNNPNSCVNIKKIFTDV

SMILES	IC50 [1]	IC50 [2]
O=C(CO)N1CC[C@]2(C1)C(=O)Nc1c2cc(Cl)c(Cl)c1F [Compound 128, (S)-5,6-dichloro-7-fluoro-1′-(2-hydroxyacetyl)spiro[indoline-3,3′-pyrrolidin]-2-one]	> 100 µM	< 300 nM
O=C([C@@H]1CCN(CCO)C1)N1CC[C@]2(C1)C(=O)Nc1cc(Cl)c(Cl)cc12 (single isomer, unassigned; isomer 2) [Compound 38]	> 100 µM	< 300 nM
O=C([C@@H]1C[C@@H](O)[C@@H](O)C1)N1CC[C@]2(C1)C(=O)Nc1cc(Cl)c(Cl)cc12 [Compound 101, (3S)-5,6-dichloro-1′-[(1S,3R,4S)-3,4-dihydroxycyclopentanecarbonyl]-1H-spiro[indole-3,3′-pyrrolidin]-2-one]	> 100 µM	< 300 nM
O=C(N1CC[C@]2(C1)C(=O)Nc1cc(Cl)c(Cl)cc12)C1(F)CCNC1 (single isomer, unassigned; isomer 1) [Compound 29]	> 3 µM	< 300 nM
O=C([C@H]1CC[C@](O)(CO)C1)N1CC[C@]2(C1)C(=O)Nc1cc(Cl)c(Cl)cc12 (relative stereo) [Compound 95, (S)-5,6-dichloro-1′-((1R,3S)-rel-3-hydroxy-3-(hydroxymethyl)cyclopentane-1-carbonyl)spiro[indoline-3,3′-pyrrolidin]-2-one isomer 1]	> 100 µM	< 1000 nM
C[C@@H](O)C(=O)N1CC[C@]2(C1)C(=O)Nc1cc(Cl)c(Cl)cc12 [Compound 13, (S)-5,6-dichloro-1′-((R)-2-hydroxypropanoyl)spiro[indoline-3,3′-pyrrolidin]-2-one]	> 100 µM	< 1000 nM
O=C(C1CCNCC1)N1CC[C@]2(C1)C(=O)Nc1cc(Cl)c(Cl)cc12 [Compound 21, (S)-5,6-dichloro-1′-(piperidine-4-carbonyl)spiro[indoline-3,3′-pyrrolidin]-2-one]	> 100 µM	< 1000 nM
O=C([C@H]1CC[C@@](O)(CO)C1)N1CC[C@]2(C1)C(=O)Nc1cc(Cl)c(Cl)cc12 (relative stereo) [Compound 97, (S)-5,6-dichloro-1′-((1R,3R)-rel-3-hydroxy-3-(hydroxymethyl)cyclopentane-1-carbonyl)spiro[indoline-3,3′-pyrrolidin]-2-one isomer 1]	> 100 µM	< 1000 nM
O=C(C[C@@H]1CCNC1)N1CC[C@]2(C1)C(=O)Nc1cc(Cl)c(Cl)cc12 [Compound 60, (S)-5,6-dichloro-1′-(2-((S)-pyrrolidin-3-yl)acetyl)spiro[indoline-3,3′-pyrrolidin]-2-one]	> 100 µM	< 300 nM
O=C1Nc2cc(Cl)c(Cl)cc2[C@]12CCN(C(=O)[C@H]1CC[C@H](O)CC1)C2 [Compound 52, (S)-5,6-dichloro-1′-((1r,4S)-4-hydroxycyclohexane-1-carbonyl)Spiro[indoline-3,3′-pyrrolidin]-2-one]	> 30 µM	< 1000 nM
O=C([C@@H]1CNC[C@H]1O)N1CC[C@]2(C1)C(=O)Nc1cc(Cl)c(Cl)cc12 (single isomer, unassigned) [Compound 3]	> 100 µM	< 100 nM
O=C(c1cn[nH]c1)N1CC[C@]2(C1)C(=O)Nc1cc(Cl)c(Cl)cc12 [Compound 35, (S)-5,6-dichloro-1′-(1H-pyrazole-4-carbonyl)spiro[indoline-3,3′-pyrrolidin]-2-one]	> 100 µM	< 1000 nM
O=C(c1cc[nH]n1)N1CC[C@]2(C1)C(=O)Nc1cc(Cl)c(Cl)cc12 [Compound 53, (S)-5,6-dichloro-1′-(1H-pyrazole-3-carbonyl)spiro[indoline-3,3′-pyrrolidin]-2-one]	> 10 µM	< 3000 nM
Cc1c(Cl)c(Cl)cc2c1NC(=O)[C@@]21CCN(C(=O)CO)C1 [Compound 129, (3S)-5,6-dichloro-1′-(2-hydroxyacetyl)-7-methyl-1H-spiro[indole-3,3′-pyrrolidin]-2-one]	> 100 µM	< 300 nM
Nc1cc(C(=O)N2CC[C@]3(C2)C(=O)Nc2cc(Cl)c(Cl)cc23)ccn1 [Compound 42, (S)-1′-(2-aminoisonicotinoyl)-5,6-dichlorospiro[indoline-3,3′-pyrrolidin]-2-one]	> 10 µM	< 300 nM
C[C@H](O)CC(=O)N1CC[C@]2(C1)C(=O)Nc1cc(Cl)c(Cl)cc12 [Compound 88, (S)-5,6-dichloro-1′-((S)-3-hydroxybutanoyl)spiro[indoline-3,3′-pyrrolidin]-2-one]		< 3000 nM
O=C([C@@H]1CC[C@@H](O)C1)N1CC[C@]2(C1)C(=O)Nc1cc(Cl)c(Cl)cc12 (single isomer, unassigned; isomer 2) [Compound 64]		< 3000 nM
CS(=O)(=O)N1CC[C@]2(C1)C(=O)Nc1cc(Cl)c(Cl)cc12 [Compound 143]		< 1000 nM
CN1CC(C(=O)N2CC[C@]3(C2)C(=O)Nc2cc(Cl)c(Cl)cc23)CC1=O (stereo partly drawn) [Compound 81, (3S)-5,6-dichloro-1′-(1-methyl-5-oxopyrrolidine-3-carbonyl)spiro[indoline-3,3′-pyrrolidin]-2-one]		< 3000 nM
O=C([C@@H]1CCCN1)N1CC[C@]2(C1)C(=O)Nc1cc(Cl)c(Cl)cc12 [Compound 22, (S)-1′-(L-prolyl)-5,6-dichlorospiro[indoline-3,3′-pyrrolidin]-2-one]		< 1000 nM
O=C(C[C@@H]1CCCN1)N1CC[C@]2(C1)C(=O)Nc1cc(Cl)c(Cl)cc12 [Compound 61, (S)-5,6-dichloro-1′-(2-((S)-pyrrolidin-2-yl)acetyl)spiro[indoline-3,3′-pyrrolidin]-2-one]		< 1000 nM
O=C(N1CC[C@]2(C1)C(=O)Nc1cc(Cl)c(Cl)cc12)[C@@]1(F)CCCNC1 [Compound 48, (S)-5,6-dichloro-1′-((R)-3-fluoropiperidine-3-carbonyl)spiro[indoline-3,3′-pyrrolidin]-2-one]		< 1000 nM
C[C@H]1C[C@@]2(CN1C(=O)CO)C(=O)Nc1cc(Cl)c(Cl)cc12 (single isomer, unassigned; isomer 4) [Compound 126, 5,6-dichloro-1′-(2-hydroxyacetyl)-5′-methyl-1H-spiro[indole-3,3′-pyrrolidin]-2-one isomer 4]		< 10000 nM
O=C([C@H]1CNC[C@@H]1O)N1CC[C@]2(C1)C(=O)Nc1cc(Cl)c(Cl)cc12 (single isomer, unassigned) [Compound 4]		< 1000 nM
O=C(C1CC1O)N1CC[C@]2(C1)C(=O)Nc1cc(Cl)c(Cl)cc12 (stereo partly drawn) [Compound 158, (3S)-5,6-dichloro-1′-(2-hydroxycyclopropane-1-carbonyl)spiro[indoline-3,3′-pyrrolidin]-2-one]		< 3000 nM
O=C1Nc2cc(Cl)c(Cl)cc2[C@]12CCN(C(=O)[C@H]1C[C@H](O)C1)C2 [Compound 27, (S)-5,6-dichloro-1′-((1r,3S)-3-hydroxycyclobutane-1-carbonyl)spiro[indoline-3,3′-pyrrolidin]-2-one]		< 3000 nM
O=C([C@@H]1C[C@H]1CO)N1CC[C@]2(C1)C(=O)Nc1cc(Cl)c(Cl)cc12 (relative stereo) [Compound 150, (S)-5,6-dichloro-1′-(1R,2R)-rel-2-(hydroxymethyl)cyclopropane-1-carbonyl)spiro[indoline-3,3′-pyrrolidin]-2-one]		< 1000 nM
CC(C)C[C@@H](N)C(=O)N1CC[C@]2(C1)C(=O)Nc1cc(Cl)c(Cl)cc12 [Compound 44, (S)-1′-(D-leucyl)-5,6-dichlorospiro[indoline-3,3′-pyrrolidin]-2-one]		< 3000 nM
O=C([C@H]1CC[C@H](CO)C1)N1CC[C@]2(C1)C(=O)Nc1cc(Cl)c(Cl)cc12 (relative stereo) [Compound 99, (3S)-5,6-dichloro-1′-[(1R,3R)-rel-3-(hydroxymethyl)cyclopentanecarbonyl]-1H-spiro[indole-3,3′-pyrrolidin]-2-one isomer 1]		< 3000 nM
C[C@H](O)C(=O)N1CC[C@]2(C1)C(=O)Nc1cc(Cl)c(Cl)cc12 [Compound 12, (S)-5,6-dichloro-1′-((S)-2-hydroxypropanoyl)spiro[indoline-3,3′-pyrrolidin]-2-one]		< 3000 nM

Source: patent publication US20240391926A1, “SPIROINDOLINONE COMPOUNDS AS Kv1.3 POTASSIUM SHAKER CHANNEL BLOCKERS” (D.E. Shaw Research, LLC, priority 2021, published 2024)
